Measured values published in US9744150B2, “Suspension containing micronized benzoyl peroxide” (Dow Pharmaceutical Sciences Inc., priority 2009, dated 2017).

Assay: surface tension by Du Noüy ring method, Krüss K20 EasyDyne tensiometer
Assay type: physicochemical
Conditions: for Surface tension: room temperature
Experimental: As used herein, the term “surface tension” refers to the force required to increase the unit area of a surface of a liquid or of an interface between two liquids or between a liquid and a gas, generally stated in units of dynes/cm. Surface tensions described herein are measured by the Du Noüy ring method utilizing an EasyDyne tensiometer model K20 marketed by Krüss USA, Matthews, N.C.
Surface tension of a fluid containing water was determined prior to and after mixing with various concentrations of various water soluble organic solvents in water. […] The study was performed at room temperature utilizing a Kruss Surface Tensiometer, Model K20 EasyDyne (Kruss USA, Matthews, N.C.) and the results are shown in Table 4. Values for surface tension are in dynes/cm.

SMILES | Surface tension (1.0 % w/w solvent in water) | Surface tension (2.5 % w/w solvent in water) | Surface tension (5 % w/w solvent in water) | Surface tension (7.5 % w/w solvent in water) | Surface tension (10 % w/w solvent in water) | Surface tension (12.5 % w/w solvent in water) | Surface tension (15.0 % w/w solvent in water) | Surface tension (17.5 % w/w solvent in water) | Surface tension (20 % w/w solvent in water) | Surface tension (22.5 % w/w solvent in water) | Surface tension (25 % w/w solvent in water) | Surface tension (100 % w/w solvent) | Surface tension (50 % w/w solvent in water) | Surface tension (75 % w/w solvent in water) | suitability for the present method (by itself, at concentrations of 75% or less) | Surface tension (30 % w/w solvent in water) | concentration suitable for the invention (surface tension less than 64 dynes/cm) (solvent in water, from the data of Table 4)
OCCCO [1,3-Propanediol, 1,3-propanediol] | 69.8 dynes/cm | 68.1 dynes/cm | 64.6 dynes/cm | 64.4 dynes/cm | 61.2 dynes/cm | 61.1 dynes/cm | 61.0 dynes/cm | 58.9 dynes/cm | 60.4 dynes/cm | 58.2 dynes/cm | 58.3 dynes/cm |  |  |  |  |  | 
CO[C@H]1CO[C@H]2[C@@H]1OC[C@H]2OC [Dimethyl Isosorbide, dimethyl isosorbide] | 66.0 dynes/cm | 61.7 dynes/cm | 52.8 dynes/cm | 52.1 dynes/cm | 47.9 dynes/cm | 46.4 dynes/cm | 43.5 dynes/cm | 41.9 dynes/cm | 38.6 dynes/cm | 40.5 dynes/cm | 41.7 dynes/cm | 39.3 dynes/cm |  |  |  |  | 
CCOCCOCCO [Ethoxy Diglycol NF, ethoxydiglycol] | 66.2 dynes/cm | 62.5 dynes/cm | 56.8 dynes/cm | 55.3 dynes/cm | 53.1 dynes/cm | 50.4 dynes/cm | 49.7 dynes/cm | 47.6 dynes/cm | 43.2 dynes/cm | 43.1 dynes/cm | 43.8 dynes/cm | 32.0 dynes/cm |  |  |  |  | 
CC1COC(=O)O1 (stereo not shown) [Propylene Carbonate, propylene carbonate] | 68.5 dynes/cm | 63.8 dynes/cm | 56.8 dynes/cm | 49.6 dynes/cm | 45.9 dynes/cm | 46.5 dynes/cm | 44.1 dynes/cm | 43.5 dynes/cm |  |  |  |  |  |  |  |  | 

Further lines, results first:

Surface tension (1.0 % w/w solvent in water) | Surface tension (2.5 % w/w solvent in water) | Surface tension (5 % w/w solvent in water) | Surface tension (7.5 % w/w solvent in water) | Surface tension (10 % w/w solvent in water) | Surface tension (12.5 % w/w solvent in water) | Surface tension (15.0 % w/w solvent in water) | Surface tension (17.5 % w/w solvent in water) | Surface tension (20 % w/w solvent in water) | Surface tension (22.5 % w/w solvent in water) | Surface tension (25 % w/w solvent in water) | Surface tension (100 % w/w solvent) | Surface tension (50 % w/w solvent in water) | Surface tension (75 % w/w solvent in water) | suitability for the present method (by itself, at concentrations of 75% or less) | Surface tension (30 % w/w solvent in water) | concentration suitable for the invention (surface tension less than 64 dynes/cm) (solvent in water, from the data of Table 4) | SMILES
67.4 dynes/cm | 62.0 dynes/cm | 55.9 dynes/cm | 51.4 dynes/cm | 47.8 dynes/cm | 44.6 dynes/cm | 42.2 dynes/cm | 40.2 dynes/cm | 38.0 dynes/cm | 36.6 dynes/cm | 34.9 dynes/cm | 22.3 dynes/cm |  |  |  |  |  | CCO [Ethanol (200 proof), ethanol]
 |  |  |  |  |  |  |  |  |  | 69.8 dynes/cm | 62.0 dynes/cm | 68.9 dynes/cm | 66.4 dynes/cm | not suitable |  |  | OCC(O)CO [Glycerin USP, glycerin]
62.1 dynes/cm |  | 47.3 dynes/cm | 42.0 dynes/cm | 38.6 dynes/cm | 35.7 dynes/cm | 33.1 dynes/cm | 31.1 dynes/cm | 29.5 dynes/cm | 28.1 dynes/cm | 27.3 dynes/cm | 21.1 dynes/cm |  |  |  |  |  | CC(C)O [Isopropyl Alcohol, isopropyl alcohol]
70.8 dynes/cm | 68.7 dynes/cm | 65.9 dynes/cm | 63.6 dynes/cm | 61.7 dynes/cm | 59.7 dynes/cm | 58.3 dynes/cm | 56.5 dynes/cm | 55.2 dynes/cm | 54.1 dynes/cm | 52.8 dynes/cm | 36.1 dynes/cm |  |  |  | 50.6 dynes/cm | ≥ 7.5% | CC(O)CO (stereo not shown) [Propylene Glycol USP, propylene glycol]
